Measured values from US11771738B2 (Zoetis Services LLC, priority 2018, dated 2023).
Read-outs that look alike come from different tables or passages of the source.

What was measured:
Assay type in all cases: cell-based
[1] = tested on: microfilariae of Dirofilaria immitis; test: Dirofilaria immitis, Microfilaria (DiMf) In Vitro Assay; settings: Dirofilaria immitis, 72 h, read-out: DiMf MED, Minimum Effective Dose, D. immitis microfilariae motility, in vitro
[2] = tested on: third stage larvae of Haemonchus contortus; test: Haemonchus contortus, Larvae Stage 3 (HcL3) In Vitro Assay; settings: Haemonchus contortus, 96 h
D. immitis L4 larvae = test: Dirofilaria immitis, L4 Stage (DiL4) In Vitro Assay; settings: for minimal effective concentration: Dirofilaria immitis, 72 h, read-out: DiL4 MED, Minimum Effective Dose, D. immitis L4 larvae motility, in vitro; for DiMf/DiL4: larval stage selectivity, ratio of DiMf MED to DiL4 MED
[3] = read-out: HcL3 MED, Haemonchus contortus third stage larvae in vitro, class mark appended to the Ex # in Table 3
[4] = read-out: HcL3 MED, Minimum Effective Dose, H. contortus third stage larvae, approximately 96 hours
[5] = read-out: HcL3 MED (symbol after Ex#), approximately 96 hours incubation, multiple-resistant field isolate
[6] = read-out: HcL3 MED, approximately 96 hours incubation, multiple-resistant field isolate

Row | Compound | minimal effective concentration [1] | minimal effective concentration [2, 3] | minimal effective concentration [2, 4] | minimal effective concentration (D. immitis L4 larvae) | DiMf/DiL4 (D. immitis L4 larvae) | minimal effective concentration [2, 5] | minimal effective concentration [2, 6]
1 | COC(c1ccc(C[C@H]2OC(=O)[C@H](CC(C)C)N(C)C(=O)[C@@H](C)OC(=O)[C@H](CC(C)C)N(C)C(=O)[C@@H](Cc3ccc(C(OC)c4ccc(O)nc4)cc3)OC(=O)[C@H](CC(C)C)N(C)C(=O)[C@@H](C)OC(=O)[C@H](CC(C)C)N(C)C2=O)cc1)c1ccc(O)nc1 (stereo partly drawn) [Example 3-259, (3S,6R,9S,12R,15S,18R,21S,24R)-6,18-bis(4-((6-hydroxypyridin-3-yl)(methoxy)methyl)benzyl)-3,9,15,21-tetraisobutyl-4,10,12,16,22,24-hexamethyl-1,7,13,19-tetraoxa-4,10,16,22-tetraazacyclotetracosan-2,5,8,11,14,17,20,23-octaone] | 0.01 µM | 1 to 3.3 µM | 3.3 µM | 0.0005 µM | 20 |  | 
2 | COc1ncccc1C(C)(F)c1ccc(C[C@H]2OC(=O)[C@H](CC(C)C)N(C)C(=O)[C@@H](C)OC(=O)[C@H](CC(C)C)N(C)C(=O)[C@@H](Cc3ccc(C(C)(F)c4cccnc4OC)cc3)OC(=O)[C@H](CC(C)C)N(C)C(=O)[C@@H](C)OC(=O)[C@H](CC(C)C)N(C)C2=O)cc1 (stereo partly drawn) [Example 3-220, (3S,6R,9S,12R,15S,18R,21S,24R)-6,18-bis(4-(1-fluoro-1-(2-methoxypyridin-3-yl)ethyl)benzyl)-3,9,15,21-tetraisobutyl-4,10,12,16,22,24-hexamethyl-1,7,13,19-tetraoxa-4,10,16,22-tetraazacyclotetracosan-2,5,8,11,14,17,20,23-octaone] | 0.005 µM |  | > 100 µM | 0.0007 µM | 7.1 |  | 
3 | CC(C)C[C@H]1C(=O)O[C@H](Cc2ccc(Cc3sccc3Br)cc2)C(=O)N(C)[C@@H](CC(C)C)C(=O)O[C@H](C)C(=O)N(C)[C@@H](CC(C)C)C(=O)O[C@H](Cc2ccc(Cc3sccc3Br)cc2)C(=O)N(C)[C@@H](CC(C)C)C(=O)O[C@H](C)C(=O)N1C [Example 3-125, (3S,6R,9S,12R,15S,18R,21S,24R)-6,18-bis(4-((3-bromothiophen-2-yl)methyl)benzyl)-3,9,15,21-tetraisobutyl-4,10,12,16,22,24-hexamethyl-1,7,13,19-tetraoxa-4,10,16,22-tetraazacyclotetracosan-2,5,8,11,14,17,20,23-octaone] | 0.03 µM |  | > 100 µM | < 0.0002 µM | >150 |  | 
4 | Cc1noc(C)c1Cc1ccc(C[C@H]2OC(=O)[C@H](CC(C)C)N(C)C(=O)[C@@H](C)OC(=O)[C@H](CC(C)C)N(C)C(=O)[C@@H](Cc3ccccc3)OC(=O)[C@H](CC(C)C)N(C)C(=O)[C@@H](C)OC(=O)[C@H](CC(C)C)N(C)C2=O)cc1 [Example 4-109, (3S,6R,9S,12R,15S,18R,21S,24R)-6-benzyl-18-(4-((3,5-dimethylisoxazol-4-yl)methyl)benzyl)-3,9,15,21-tetraisobutyl-4,10,12,16,22,24-hexamethyl-1,7,13,19-tetraoxa-4,10,16,22-tetraazacyclotetracosan-2,5,8,11,14,17,20,23-octaone] | 0.001 µM |  | 1 µM | 0.0004 µM | 2.5 | < 1 µM | ≤ 1 µM
5 | CC(C)C[C@H]1C(=O)O[C@H](Cc2ccc(Cc3occc3C#N)cc2)C(=O)N(C)[C@@H](CC(C)C)C(=O)O[C@H](C)C(=O)N(C)[C@@H](CC(C)C)C(=O)O[C@H](Cc2ccc(Cc3occc3C#N)cc2)C(=O)N(C)[C@@H](CC(C)C)C(=O)O[C@H](C)C(=O)N1C [Example 3-50, 2,2′-(((((2R,5S,8R,11 S,14R,17S,20R,23S)-5,11,17,23-tetraisobutyl-4,8,10,16,20,22-hexamethyl-3,6,9,12,15,18,21,24-octaoxo-1,7,13,19-tetraoxa-4,10,16,22-tetraazacyclotetracosane-2,14-diyl)bis(methylene))bis(4,1-phenylene))bis(methylene))bis(furan-3-carbonitrile)] | 0.001 µM | < 1 µM | 0.3 µM | 0.0001 µM | 10 |  | ≤ 1 µM
6 | Cc1ccsc1Cc1ccc(C[C@H]2OC(=O)[C@H](CC(C)C)N(C)C(=O)[C@@H](C)OC(=O)[C@H](CC(C)C)N(C)C(=O)[C@@H](Cc3ccc(Cc4sccc4C)cc3)OC(=O)[C@H](CC(C)C)N(C)C(=O)[C@@H](C)OC(=O)[C@H](CC(C)C)N(C)C2=O)cc1 [Example 3-44, (3S,6R,9S,12R,15S,18R,21S,24R)-3,9,15,21-tetraisobutyl-4,6,10,16,18,22-hexamethyl-12,24-bis(4-((3-methylthiophen-2-yl)methyl)benzyl)-1,7,13,19-tetraoxa-4,10,16,22-tetraazacyclotetracosan-2,5,8,11,14,17,20,23-octaone] | 0.1 µM | 1 to 3.3 µM | 1.8 µM | 0.0001 µM | 1000 |  | 
7 | CC(C)C[C@H]1C(=O)O[C@H](Cc2ccc(Cc3scnc3Cl)cc2)C(=O)N(C)[C@@H](CC(C)C)C(=O)O[C@H](C)C(=O)N(C)[C@@H](CC(C)C)C(=O)O[C@H](Cc2ccc(Cc3scnc3Cl)cc2)C(=O)N(C)[C@@H](CC(C)C)C(=O)O[C@H](C)C(=O)N1C [Example 3-112, (3S,6R,9S,12R,15S,18R,21S,24R)-6,18-bis(4-((4-chlorothiazol-5-yl)methyl)benzyl)-3,9,15,21-tetraisobutyl-4,10,12,16,22,24-hexamethyl-1,7,13,19-tetraoxa-4,10,16,22-tetraazacyclotetracosan-2,5,8,11,14,17,20,23-octaone] | 0.001 µM | < 1 µM | 1 µM | 3e-05 µM | 33.3 |  | ≤ 1 µM
8 | CC(C)C[C@H]1C(=O)O[C@H](Cc2ccc(Cc3cncnc3C(F)(F)F)cc2)C(=O)N(C)[C@@H](CC(C)C)C(=O)O[C@H](C)C(=O)N(C)[C@@H](CC(C)C)C(=O)O[C@H](Cc2ccc(Cc3cncnc3C(F)(F)F)cc2)C(=O)N(C)[C@@H](CC(C)C)C(=O)O[C@H](C)C(=O)N1C [Example 3-318, (3S,6R,9S,12R,15S,18R,21S,24R)-3,9,15,21-tetraisobutyl-4,6,10,16,18,22-hexamethyl-12,24-bis(4-((4-(trifluoromethyl)pyrimidin-5-yl)methyl)benzyl)-1,7,13,19-tetraoxa-4,10,16,22-tetraazacyclotetracosan-2,5,8,11,14,17,20,23-octaone] | 0.0003 µM |  | 0.55 µM | 3e-05 µM | 10 |  | 
9 | CC(C)C[C@H]1C(=O)O[C@H](Cc2ccc(Cc3ccnn3C)cc2)C(=O)N(C)[C@@H](CC(C)C)C(=O)O[C@H](C)C(=O)N(C)[C@@H](CC(C)C)C(=O)O[C@H](Cc2ccccc2)C(=O)N(C)[C@@H](CC(C)C)C(=O)O[C@H](C)C(=O)N1C [Example 4-63, (3S,6R,9S,12R,15S,18R,21S,24R)-6-benzyl-3,9,15,21-tetraisobutyl-4,10,12,16,22,24-hexamethyl-18-(4-((1-methyl-1H-pyrazol-5-yl)methyl)benzyl)-1,7,13,19-tetraoxa-4,10,16,22-tetraazacyclotetracosan-2,5,8,11,14,17,20,23-octaone] | 0.001 µM |  | 1 µM | 0.001 µM | 1 | < 1 µM | ≤ 1 µM
10 | COc1ccc(C(C)c2ccc(C[C@H]3OC(=O)[C@H](CC(C)C)N(C)C(=O)[C@@H](C)OC(=O)[C@H](CC(C)C)N(C)C(=O)[C@@H](Cc4ccc(C(C)c5ccc(OC)nc5)cc4)OC(=O)[C@H](CC(C)C)N(C)C(=O)[C@@H](C)OC(=O)[C@H](CC(C)C)N(C)C3=O)cc2)cn1 (stereo partly drawn) [Example 3-207, (3S,6R,9S,12R,15S,18R,21S,24R)-3,9,15,21-tetraisobutyl-6,18-bis(4-(1-(6-methoxypyridin-3-yl)ethyl)benzyl)-4,10,12,16,22,24-hexamethyl-1,7,13,19-tetraoxa-4,10,16,22-tetraazacyclotetracosan-2,5,8,11,14,17,20,23-octaone] | 0.05 µM |  | > 100 µM | 0.001 µM | 50 |  | 
11 | CC(C)C[C@H]1C(=O)O[C@H](Cc2ccc(Cc3cocn3)cc2)C(=O)N(C)[C@@H](CC(C)C)C(=O)O[C@H](C)C(=O)N(C)[C@@H](CC(C)C)C(=O)O[C@H](Cc2ccc(Cc3cocn3)cc2)C(=O)N(C)[C@@H](CC(C)C)C(=O)O[C@H](C)C(=O)N1C [Example 3-57, (3S,6R,9S,12R,15S,18R,21S,24R)-3,9,15,21-tetraisobutyl-4,6,10,16,18,22-hexamethyl-12,24-bis(4-(oxazol-4-ylmethyl)benzyl)-1,7,13,19-tetraoxa-4,10,16,22-tetraazacyclotetracosan-2,5,8,11,14,17,20,23-octaone] | 0.0003 µM | < 1 µM | 1 µM | 0.0003 µM | 1 |  | ≤ 1 µM
